Data published in patent US4015002A, “1-Aryl-2-oxo-2,4,5,6,7,7a-hexahydro-indoles, salts, pharmaceutical compositions and methods of use” (Laboratoire Roger Bellon, priority 1974, dated 1977).
≈ marks a conversion by molar mass, not a printed value. Entries after “also recorded” stand apart in the source; their conditions may differ. Like-named read-outs stand apart in the source and are kept apart here.

Key:
dog = assay: Cardiac isochaemal hypoxy in the dog (Sodi-Pallares preparation); format: in vivo; settings: i.v. 10 or 25 mg/kg
Procedure: After ligature of the anterior intraventricular coronary artery (Sodi-Pallares preparation), intravenous administration of 10 or 25 mg/kg of the compound of Example 3, increased the strength of cardiac contractions and the ventricular dp/dt return, which reflects a […] in the contractile state of the myocardial fibres.

platelet aggregation = assay: Platelet aggregation in human blood; format: cell-based
[1] = test system: isolated heart of the rabbit; assay: Cardiac action on the isolated heart of a rabbit (Langendorf preparation); settings: for EC20: Oryctolagus cuniculus
Procedure: (§1) This was examined according to known methods in the isolated auricle (Trevan preparation) and in the isolated heart of a rabbit (Langendorf preparation).
In the Langendorf preparation, the action of the compounds was determined from three parameters; the amplitude of contractions, coronary delivery, and rhythm. […] The results are indicated in Table 1; an arrow ↓ indicates a diminution, and an arrow ↑ an augmentation.

cardiovascular system = assay: Overall action on the cardiovascular system; format: in vivo
Source text: Compounds in accordance with the invention have shown a marked action on the cardiovascular system, particularly as coronary and cerebal peripheral vasodilators. Some of the compounds have also shown activity as hypotensives or hypertensives. […] In these tests, aqueous solutions of the salts described in the cited Examples were used.

rat = assay: Protection against cerebral isochaemial hypoxy in the rat (clamping of carotid and basilar artery, E.E.G.); format: in vivo; settings: 5 mg/kg i.v.
Procedure: The protective effect of the compound of Example 3 with regard to cerebal isochaemal hypoxy is shown for at least 3 hours after injection.

anaethestized dog = assay: Action on femoral delivery, aortal pressure and cardiac rhythm in the anaesthetized dog; format: in vivo
Procedure: This was investigated in an anaethestized dog, the compounds under test being administered by intraveneous perfusion (over 5 minutes). The various compounds under test were compared by administering all of them at a dose per kilogram corresponding to 1/10 of the mouse LD50 (I.V.).
Simultaneously were measured: variations of femoral delivery, aortal pressure, and cardiac rhythm. Table II indicates the maximum variations of these different parameters observed over the 30 minutes which followed administration of various compounds. These variations are expressed in percent based on the initial values.

[2] = Toxicity, intravenous in the mouse; settings: in vivo, i.v.
Procedure: The toxicities of the various compound were determined intravenously in the mouse.

[3] = Hygroscopicity of the hydrochloride; format: physicochemical; settings: hydrochloride salt
isolated auricle = assay: Cardiac action on the isolated auricle (Trevan preparation): amplitude of contractions; settings: arrows for diminution/increase are drawings, 0 = inactive, read-out: Action on the isolated auricle: minimum concentration producing a variation of 20% in amplitude of contractions
Procedure: as §1
Cardiac action of the compounds in question was evaluated according to the amplitude of contractions of the isolated auricle.

[4] = direction arrow is a drawing, read-out: Amplitude of contractions: concentration producing a variation of 20%
[5] = i.v. perfusion over 5 min, dose 1/10 of mouse LD50, percent based on initial values

O=C1C=C2CCCCC2N1c1ccc(OCCN2CCOCC2)cc1 (stereo not shown) [Example 3, 1-[4-(2-morpholinoethoxy)-phenyl]-2-oxo-2,4,5,6,7,7a-hexahydro-indole]
Protection with regard to cardiac isochaemal hypoxy (dog): showed protective properties
Strength of cardiac contractions (dog; after coronary artery ligature): increased
Ventricular dp/dt return (dog; after coronary artery ligature): increased
Inhibition of platelet aggregation induced by A.D.P. (platelet aggregation; 1 × 10^-5 (unit not given), A.D.P. 5 mM/l): inhibited platelet aggregation
Inhibition of platelet aggregation induced by collagen (platelet aggregation; 1 × 10^-5 (unit not given), collagen 200 mg/cm^3): inhibited platelet aggregation
Inhibition of platelet aggregation induced by adrenalin (platelet aggregation; 2 × 10^-4 M, adrenalin 2.5 mcM/l): inhibited platelet aggregation
Coronary delivery (in words) [1]: did not modify coronary rhythm or augment coronary delivery
Coronary rhythm (in words) [1]: did not modify coronary rhythm
EC20 ([1]; augmentation, read-out: Concentration providing an augmentation of 20% in the amplitude of contractions): 10 µg/mL (≈ 29.2 µM)
EC20 [1, 4]: 10 µg/mL (≈ 29.2 µM)
EC20 ([1]; direction arrow is a drawing, read-out: Coronary delivery: concentration producing a variation of 20%): 20 µg/mL (≈ 58.4 µM)
Action on the cardiovascular system (in words) (cardiovascular system; aqueous solutions of the salts): vasodilators, this action being shown on coronary delivery, femoral delivery and vertebral delivery
Cardiac frequency on increase in amplitude of cardiac contractions (in words) (cardiovascular system; in vivo): modified and transitory increase in cardiac frequency
Protection with regard to cerebral isochaemial hypoxy (rat): marked protecting properties
Delay in the appearance of electrical silence in the E.E.G. (rat; after beginning of clamping): significantly increased
Duration of protective effect with regard to cerebral hypoxy (rat; after injection): at least 3 hours
Delay in normalization of the E.E.G. trace (rat; after removal of the clamps): significantly reduced
Period of electrical silence of the E.E.G. (rat; during clamping and after removal of clamps): significantly reduced
Aortal pressure (in words) (anaethestized dog; anaesthetized dog, i.v.): without modifying aortal pressure; also recorded: without changes in aortal pressure
Cardiac frequency (in words) (anaethestized dog; anaesthetized dog, i.v.): without modifying aortal pressure or cardiac frequency
Vasodilator action (in words) (anaethestized dog; anaesthetized dog, i.v., 1/10 of mouse LD50): clearly vasodilators
Aortal pressure (in words) (anaethestized dog; anaesthetized dog, i.v., listed as Example 4): without changes in aortal pressure
Aortal pressure, maximum variation in 30 minutes (anaethestized dog; [5]): 0%
LD50 [2]: 225 mg/kg

CN(C)CCOc1ccc(N2C(=O)C=C3CCCCC32)cc1Cl (stereo not shown) [Example 15, 1-[3-chloro-4-(2-dimethylaminoethoxy)-phenyl]-2-oxo-2,4,5,6,7,7a-hexahydro-indole]
EC20 [1, 4]: 1 µg/mL (≈ 2.99 µM)
EC20 ([1]; direction arrow is a drawing, read-out: Rhythm: concentration producing a variation of 20%): 1 µg/mL (≈ 2.99 µM)
Hygroscopicity [3]: hygroscopic and absorbed 1/2 mol of water from the air
EC20 (isolated auricle): 5 µg/mL (≈ 14.9 µM)
Aortal pressure, maximum variation in 30 minutes (anaethestized dog; [5]): 0%
Cardiac Rhythm, maximum variation in 30 minutes (anaethestized dog; [5]): 0%
LD50 [2]: 15 mg/kg
